The source of these data is US8124598B2 (priority 2006, dated 2012).

Entries after “also recorded” stand apart in the source; their conditions may differ.

The subject of data set [1] is treatment-resistant patients. Kind of data set: Other treatments of the Example 3 patients (history). Particulars: for response to other treatment: Example 3 patients 2, 3, 5, 6, 7, before 7-keto DHEA. From the text: Patient 2 A married person was anxious all their life, hypertensive, fragile, had 4 years of depression due to stress and received 12 years of psychoanalysis.

The subject of data set [2] is women with severe chronic PTSD. The data set can be described thus: Other medications of the Example 1 case patients (history). The class given is in vivo, human. Here is the method: Case 2. patient two, a person with chronic severe PTSD (DSM-IV) associated with a history of severe childhood physical and sexual abuse, had remained highly symptomatic despite undergoing one and a half years of individual and group CBT and receiving paroxetine up to 30 mg daily, from other practitioners, for more than 4 years. […] They wished to be tapered off paroxetine because they had gained 40 lb, and after becoming obese, they also became hypertensive. Ms. […] Although their paroxetine dosage was tapered to 5 mg every other day, and lamotrigine 100 mg and topiramate 75 mg were administered daily, they remained highly symptomatic.
Case 4. patient one was in psychiatric treatment for over 25 years, including a long course of psychoanalysis and 2 years of CBT. They had been treated with adequate trials of 2 tricyclic antidepressants, 3 SSRIs, venlafaxine, 2 monoamine oxidase inhibitors, 3 anticonvulsants, many typical and atypical antipsychotics, lithium, bupropion, trazodone, and nefazodone.
[…] symptoms persisted in spite of psychotherapy for more than 15 years and numerous trials on medications.

In data set [3] the test system is midlife major and minor depression or dysthymia. The note with it: cited from earlier work.
[4] abbreviates: Case 4, lorazepam 1 mg p.r.n., aripiprazole 2.5 mg daily, pemoline 75 mg daily, phentermine 30 mg daily.

Regarding `CN[C@H]1CC[C@@H](c2ccc(Cl)c(Cl)c2)c2ccccc21` [sertraline], the “response to other treatment” value in data set [1] is “partially improved”. Besides, in data set [2] (Case 5, sertraline for 6 years), the benefit result is recorded as “minimal benefit”. For the same molecule, in data set [2] (human, in vivo), the “adverse effect of failed trial” value was “agitated and irritable”.

With `CNCCC(Oc1ccc(C(F)(F)F)cc1)c1ccccc1` (stereo not drawn) [fluoxetine], the “adverse effect of failed trial” value in data set [2] (human, in vivo) is “agitated and irritable”. On to `COc1ccc(C(CN(C)C)C2(O)CCCCC2)cc1` (stereo not drawn) [venlafaxine], for which, in data set [1], the “response to other treatment” value is given as “partially responded”. The “tolerability of other treatment” value in data set [1] (Example 3 patients 6 and 7) was “did not like the side effects”. Further, the benefit result in data set [2] (Case 5, sertraline for 6 years) is “slightly helpful”. Also, in data set [2] (Case 5, venlafaxine at 300 mg daily), the adverse effect entry is on record as “overly activated”.

With `Nc1nnc(-c2cccc(Cl)c2Cl)c(N)n1` [lamotrigine], the “response to other treatment” value in data set [1] is “partially improved”. Consider `O=C1Nc2ccc(Cl)cc2C(c2ccccc2Cl)=NC1O` (stereo not drawn) [lorazepam], for which the benefit entry in data set [2] (setting [4]) was “some relief from anxiety, depression, and agitation”.

As to `COC(=O)C(c1ccccc1)C1CCCCN1` (stereo not drawn) [Methylphenidate], in data set [2] (Case 4), the adverse effect result is reported as “made their anxiety worse”.

Regarding `Fc1ccc([C@@H]2CCNC[C@H]2COc2ccc3c(c2)OCO3)cc1` [paroxetine], in data set [2] (Case 2, patient's own judgement), the benefit entry was “not helping their chronic severe anxiety and irritability”. `C[S+](CC[C@H](N)C(=O)O)C[C@H]1O[C@@H](n2cnc3c(N)ncnc32)[C@H](O)[C@@H]1O` (stereo partly drawn) [SAMe, S-adenosylmethionine]: in data set [1], the “response to other treatment” value was “partially helped; also recorded: made the Doxepin work better”.

With `C[C@H](N)Cc1ccccc1` [dextroamphetamine], the adverse effect result in data set [2] (Case 4) is “made their anxiety worse”. In the case of `O=C1CCc2ccc(OCCCCN3CCN(c4cccc(Cl)c4Cl)CC3)cc2N1` [aripiprazole], the “response to other treatment” value in data set [1] is “partially responded”. For the same molecule, in data set [2] (setting [4]), the benefit result is “some relief from anxiety, depression, and agitation”. Moreover, the weight gain in data set [2] (human, in vivo) was 30 lb. In the case of `CC(C)(N)Cc1ccccc1` [phentermine], in data set [2] (setting [4]), the benefit entry is recorded as “enough energy to function”. Turning to `CN1CCN2c3ncccc3Cc3ccccc3C2C1` (stereo not drawn) [Remeron], the “response to other treatment” value in data set [1] is listed as “partially helped”. With `CN(C)CCC=C1c2ccccc2COc2ccccc21` [Doxepin], the “response to other treatment” value in data set [1] is given as “partially responded”. Moreover, in data set [1] (human, in vivo), the “tolerability of other treatment” value is “intolerant of the side effects”.

Consider `C[C@]12CC[C@H](O)CC1=CC[C@@H]1[C@@H]2CC[C@]2(C)C(=O)CC[C@@H]12` [DHEA, Dehydroepiandrosterone], for which the induced mania result in data set [3] (case reports) is reported as “induced mania has been reported”. Also, in data set [3] (one open series and 3 placebo-controlled, double-blind, randomized trials, midlife major and minor depression or dysthymia), the effectiveness in depression result is given as “supported the effectiveness”. On to `NC1=NC(=O)C(c2ccccc2)O1` (stereo not drawn) [Pemoline], for which the benefit entry in data set [2] (setting [4]) is reported as “enough energy to function”.
